Measured values as given in patent publication US9242996B2 (Novartis AG, priority 2013, dated 2016).

target: activated ERK2 (Homo sapiens (Human), UniProt P28482); experiment: Activated ERK2 (20 pM) Kinase Assay (AlphaScreen, ERKtide phosphorylation); type: biochemical; settings: 0.02 nM ERK2, 400 nM ERKtide peptide, 35 μM ATP, 30 min preincubation
Method: Activated ERK2 (20 pM) Kinase Assay:
The assay was carried out in 20 mM HEPES [pH 7.5], 5 mM MgCl2, 1 mM DTT, 0.01% Tween-20, 0.05% BSA using 0.02 nM ERK2, 400 nM ERKtide peptide and 35 μM ATP (all concentrations are final in the reaction) in a total volume of 10.25 μL. […] Compound dilution series were prepared in 100% DMSO. ERK2 was preincubated with compounds for 30 minutes at ambient temperature. Reaction was initiated by addition of a substrate cocktail of ERKtide peptide and ATP and was allowed to proceed for 4 hours at ambient temperature. Reaction was terminated by addition of 10 μL of a 2× stop buffer consisting of 100 mM Tris-Cl [pH 7.5], 25 mM EDTA, 0.01% Tween 20, 20 μg/mL of AlphaScreen Protein A Acceptor Beads, 20 μg/mL of Streptavidin Donor Beads (PerkinElmer, Waltham, Mass.), and 1:1000 dilution phospho-EGF Receptor (Thr669) antibody (Cat #8808, Cell Signaling Technology, Danvers, Mass.). Terminated reactions were read, after overnight incubation in the dark, on an EnVision Multilabel Plate Reader (PerkinElmer, Waltham, Mass.), with excitation and emission wavelengths set to 680 nm and 570 nm, respectively. IC50 values were determined using a four-parameter fit.

Chain of activated ERK2 (P28482 whole entry): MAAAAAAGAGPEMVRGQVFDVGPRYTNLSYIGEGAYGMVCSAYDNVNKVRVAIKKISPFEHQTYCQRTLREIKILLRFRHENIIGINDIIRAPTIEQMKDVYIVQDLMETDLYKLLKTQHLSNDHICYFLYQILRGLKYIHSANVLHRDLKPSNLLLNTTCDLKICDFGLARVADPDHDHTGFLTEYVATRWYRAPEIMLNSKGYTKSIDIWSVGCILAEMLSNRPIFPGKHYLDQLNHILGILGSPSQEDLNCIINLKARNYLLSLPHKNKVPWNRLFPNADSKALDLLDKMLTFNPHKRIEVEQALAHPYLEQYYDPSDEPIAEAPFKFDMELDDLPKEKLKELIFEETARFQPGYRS

Compound	IC50
Nc1ncc(C2CCCC(O)C2)nc1-c1ccc(C(=O)N[C@H](CO)c2cccc(Br)c2)c(F)c1 (single isomer, unassigned) [Example 385]	0.122 nM
CNC[C@@H](NC(=O)c1ccc(-c2nc([C@H]3CC[C@H](O)CC3)cnc2N)cc1F)c1cccc(Cl)c1 [Example 401, 4-(3-amino-6-((1r,4S)-4-hydroxy-cyclohexyl)pyrazin-2-yl)-N-((S)-1-(3-chlorophenyl)-2-(methylamino)ethyl)-2-fluorobenzamide]	0.0463 nM
Nc1ncc([C@@H]2CC[C@@H](O)[C@H](O)C2)nc1-c1ccc(C(=O)N[C@H](CO)c2cc(F)cc(I)c2)c(F)c1 [Example 461, 4-(3-amino-6-((1R,3R,4R)-3,4-dihydroxy-cyclohexyl)pyrazin-2-yl)-2-fluoro-N-((S)-1-(3-fluoro-5-iodophenyl)-2-hydroxyethyl) benzamide]	0.00431 nM
CNC[C@@H](NC(=O)c1ccc(-c2nc([C@H]3CC[C@H](O)CC3)cnc2N)cc1F)c1cccc(Br)c1 [Example 381, 4-(3-amino-6-((1r,4S)-4-hydroxy-cyclohexyl)pyrazin-2-yl)-N-((S)-1-(3-bromophenyl)-2-(methylamino)ethyl)-2-fluorobenzamide]	0.0209 nM
Nc1ncc(C2CCOCC2)nc1-c1ccc(C(=O)N[C@H](CO)c2cccc(Br)c2)c(F)c1 [Example 258, (S)-4-(3-amino-6-(tetrahydro-2H-pyran-4-yl)pyrazin-2-yl)-N-(1-(3-bromophenyl)-2-hydroxyethyl)-2-fluorobenzamide]	0.0343 nM
Nc1ncc([C@@H]2CC[C@H](O)[C@H](F)C2)nc1-c1ccc(C(=O)N[C@H](CO)c2cc(F)cc(Br)c2)c(F)c1 [Example 185, 4-(3-amino-6-((1R,3R,4S)-3-fluoro-4-hydroxycyclohexyl)pyrazin-2-yl)-N—((S)-1-(3-bromo-5-fluorophenyl)-2-hydroxyethyl)-2-fluorobenzamide]	0.924 nM
CNC[C@@H](NC(=O)c1ccc(-c2nc([C@H]3CC[C@H](O)CC3)cnc2N)cc1F)c1cc(F)cc(Br)c1 [Example 376, 4-(3-amino-6-((1r,4S)-4-hydroxy-cyclohexyl)pyrazin-2-yl)-N-((S)-1-(3-bromo-5-fluorophenyl)-2-(methylamino)ethyl)-2-fluorobenzamide]	0.0183 nM
N#Cc1cc(-c2cc(C3CCOCC3)cnc2N)cc(F)c1C(=O)NCc1ccccc1 [Example 204, 4-(2-amino-5-(tetrahydro-2H-pyran-4-yl)pyridin-3-yl)-N-benzyl-2-cyano-6-fluorobenzamide]	54.6 nM
CSc1cc(F)cc([C@@H](CO)NC(=O)c2ccc(-c3nc([C@H]4CC[C@H](O)CC4)cnc3N)cc2F)c1 [Example 396, 4-(3-amino-6-((1r,4S)-4-hydroxy-cyclohexyl)pyrazin-2-yl)-2-fluoro-N-((S)-1-(3-fluoro-5-(methylthio)phenyl)-2-hydroxyethyl) benzamide]	0.0198 nM
CNC[C@@H](NC(=O)c1ccc(-c2nc([C@H]3CC[C@H](O)[C@@H](F)C3)cnc2N)cc1F)c1cc(F)cc(Br)c1 [Example 184, 4-(3-amino-6-((1S,3S,4S)-3-fluoro-4-hydroxycyclohexyl)pyrazin-2-yl)-N—((S)-1-(3-bromo-5-fluorophenyl)-2-(methylamino)ethyl)-2-fluorobenzamide]	0.0261 nM
N#CC1CCC(c2cnc(N)c(-c3ccc(C(=O)N[C@H](CO)c4cc(F)cc(Br)c4)c(F)c3)n2)CC1 (stereo partly drawn) [Example 450, (S)-4-(3-amino-6-(4-cyanocyclohexyl)pyrazin-2-yl)-N-(1-(3-bromo-5-fluorophenyl)-2-hydroxyethyl)-2-fluorobenzamide]	1.5 nM
CO[C@H]1CC[C@H](c2cnc(N)c(-c3ccc(C(=O)N[C@H](CO)c4cc(F)cc(Br)c4)c(F)c3)n2)C[C@@H]1O [Example 469, 4-(3-amino-6-((1S,3S,4S)-3-hydroxy,4-methoxylcyclo-hexyl)pyrazin-2-yl)-2-fluoro-N-((S)-1-(3-fluoro-5-bromophenyl)-2-hydroxyethyl) benzamide]	0.136 nM
Nc1ncc(C2CCCC(O)C2)nc1-c1ccc(C(=O)N[C@H](CO)c2cc(F)cc(Br)c2)c(F)c1 (single isomer, unassigned) [Example 384]	0.0614 nM
Cc1nn(C(F)F)cc1-c1cnc(N)c(-c2ccc(C(=O)N[C@H](CO)c3cc(F)cc(C(F)F)c3)c(F)c2)c1 [Example 274, (S)-4-(2-amino-5-(1-(difluoromethyl)-3-methyl-1H-pyrazol-4-yl)pyridin-3-yl)-N-(1-(3-(difluoromethyl)-5-fluorophenyl)-2-hydroxyethyl)-2-fluorobenzamide]	0.0312 nM
Nc1ncc([C@@H]2CC[C@@H](O)C(F)(F)C2)nc1-c1ccc(C(=O)N[C@H](CO)c2cc(F)cc(Br)c2)c(F)c1 [Example 459, 4-(3-amino-6-((1R,4R)-3,3-difluoro-4-hydroxy-cyclohexyl)pyrazin-2-yl)-2-fluoro-N-((S)-1-(3-fluoro-5-bromophenyl)-2-hydroxyethyl) benzamide]	0.0261 nM
Cn1nccc1-c1cnc(N)c(-c2ccc(C(=O)N[C@H](CN)c3cccc(Cl)c3)c(F)c2)c1 [Example 233, (S)-N-(2-amino-1-(3-chlorophenyl)ethyl)-4-(2-amino-5-(1-methyl-1H-pyrazol-5-yl)pyridin-3-yl)-2-fluorobenzamide]	0.0209 nM
Cc1c(-c2cnc(N)c(-c3ccc(C(=O)N[C@H](CO)c4cccc(Cl)c4)c(F)c3)c2)cnn1C [Example 133, (S)-4-(2-amino-5-(1-deuterido-methyl, 5-methyl-1H-pyrazol-4-yl)pyridin-3-yl)-N-(1-(3-chlorophenyl)-2-hydroxyethyl)-2-fluorobenzamide]	0.0187 nM
Nc1ncc([C@H]2CC[C@@H](O)CC2)nc1-c1ccc(C(=O)N[C@H](CO)c2cc(F)cc(I)c2)c(F)c1 [Example 345, 4-(3-amino-6-((1s,4R)-4-hydroxy-cyclohexyl)pyrazin-2-yl)-2-fluoro-N-((S)-1-(3-fluoro-5-iodophenyl)-2-hydroxyethyl) benzamide]	0.0956 nM
Nc1ncc(C2CCCC(O)C2)nc1-c1ccc(C(=O)N[C@H](CO)c2cccc(Br)c2)c(F)c1 (single isomer, unassigned) [Example 389]	0.0308 nM
C[C@@H](O)[C@@H](NC(=O)c1ccc(-c2cc(-c3cnn(C)c3)cnc2N)cc1F)c1cccc(Cl)c1 [Example 332, 4-(2-amino-5-(1-methyl-1H-pyrazol-4-yl)pyridin-3-yl)-N-((1S,2R)-1-(3-chlorophenyl)-2-hydroxypropyl)-2-fluorobenzamide]	0.815 nM
Cn1cc(-c2cnc(N)c(-c3ccc(C(=O)N[C@H](CO)c4cc(F)cc(C(F)F)c4)c(F)c3)c2)cn1 [Example 253, (S)-4-(2-amino-5-(1-methyl-1H-pyrazol-4-yl)pyridin-3-yl)-N-(1-(3-(difluoromethyl)-5-fluorophenyl)-2-hydroxyethyl)-2-fluorobenzamide]	0.106 nM
Nc1ncc([C@H]2CC[C@@H](O)[C@@H](O)C2)nc1-c1ccc(C(=O)N[C@H](CO)c2cc(F)cc(Br)c2)c(F)c1 [Example 466, 4-(3-amino-6-((1S,3S,4R)-3,4-dihydroxy-cyclohexyl)pyrazin-2-yl)-2-fluoro-N-((S)-1-(3-fluoro-5-bromophenyl)-2-hydroxyethyl) benzamide]	0.218 nM
Nc1ncc([C@H]2CC[C@H](O)CC2)nc1-c1ccc(C(=O)N[C@H](CO)c2cccc(C(F)(F)F)c2)c(F)c1 [Example 340, 4-(3-amino-6-((1r,4S)-4-hydroxy-cyclohexyl)pyrazin-2-yl)-2-fluoro-N-((S)-2-hydroxy-1-(3-(trifluoromethyl)phenyl)ethyl) benzamide]	187 nM
Nc1ncc([C@H]2CC[C@@H](O)CC2)nc1-c1ccc(C(=O)N[C@H](CO)c2cccc(C(F)(F)F)c2)c(F)c1 [Example 341, 4-(3-amino-6-((1s,4R)-4-hydroxy-cyclohexyl)pyrazin-2-yl)-2-fluoro-N-((S)-2-hydroxy-1-(3-(trifluoromethyl)phenyl)ethyl) benzamide]	1050 nM
Nc1ncc(C2CCOCC2)nc1-c1ccc(C(=O)N[C@@H](C#CC2CC2)CO)c(F)c1 [Example 321, (S)-4-(3-amino-6-(tetrahydro-2H-pyran-4-yl)pyrazin-2-yl)-N-(4-cyclopropyl-1-hydroxybut-3-yn-2-yl)-2-fluorobenzamide]	84.9 nM
Nc1ncc([C@@H]2CC[C@@H](O)[C@H](O)C2)nc1-c1ccc(C(=O)N[C@H](CO)c2cc(F)cc(Br)c2)c(F)c1 [Example 465, 4-(3-amino-6-((1R,3R,4R)-3,4-dihydroxy-cyclohexyl)pyrazin-2-yl)-2-fluoro-N-((S)-1-(3-fluoro-5-bromophenyl)-2-hydroxyethyl) benzamide]	0.0187 nM
Cn1cc(-c2cnc(N)c(-c3ccc(C(=O)N[C@H](CO)c4cc(F)cc(CF)c4)c(F)c3)c2)cn1 [Example 240, (S)-4-(2-amino-5-(1-methyl-1H-pyrazol-4-yl)pyridin-3-yl)-2-fluoro-N-(1-(3-fluoro-5-(fluoromethyl)phenyl)-2-hydroxyethyl) benzamide]	0.0199 nM
CCNC[C@@H](NC(=O)c1ccc(-c2nc(C3CCOCC3)cnc2N)cc1F)c1cccc(Br)c1 [Example 378, (S)-4-(3-amino-6-(tetrahydro-2H-pyran-4-yl)pyrazin-2-yl)-N-(1-(3-bromophenyl)-2-(ethylamino)ethyl)-2-fluorobenzamide]	0.0248 nM
